Measured values as given in ChEMBL document CHEMBL1201862, “PubChem BioAssay data set” (2004).
One block for each compound: values may come before it. Calls of active or inactive are those of the source.

Experiments:
[1] = target: Cyclin-dependent kinase 9 (Homo sapiens, UniProt P50750); type: functional;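 further: value from the CDK9 entry of a kinome-spanning kinase panel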
[2] = target: Dual specificity mitogen-activated protein kinase kinase 2 (Homo sapiens, UniProt P36507); test: Navigating the Kinome. Panel member name: MAP2K2; type: functional
[3] = target: Maternal embryonic leucine zipper kinase (Homo sapiens, UniProt Q14680); type: functional
[4] = target: Serine/threonine-protein kinase pim-2 (Homo sapiens, UniProt Q9P1W9); type: functional;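 further: value comes from a broad kinase panel profiling study in which PIM2 was one of the panel members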
[5] = target: Dual specificity tyrosine-phosphorylation-regulated kinase 3 (Homo sapiens, UniProt O43781); type: functional;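 further: measured as one member of a broad kinase panel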
[6] = target: Mitogen-activated protein kinase kinase kinase kinase 2 (Homo sapiens, UniProt Q12851); type: functional;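 further: measured as one member of a kinome-wide kinase panel, with MAP4K2 as the panel entry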
[7] = target: Multidrug resistance protein CDR1 (Candida albicans, UniProt P43071); test: inhibition of Nile Red efflux via Candida CDR1 – S. cerevisiae AD1-8u, singleplex, Cherry Pick1 hits, dose response (AID 588606); type: functional
[8] = target: T1, Sentrin-specific protease 7 (Homo sapiens, UniProt Q9BQF6); type: functional;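 further: Luminescence-based dose-response confirmation of ultra-high-throughput screening hits, measuring inhibition of SENP7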
T1 sequence (Q9BQF6 whole entry): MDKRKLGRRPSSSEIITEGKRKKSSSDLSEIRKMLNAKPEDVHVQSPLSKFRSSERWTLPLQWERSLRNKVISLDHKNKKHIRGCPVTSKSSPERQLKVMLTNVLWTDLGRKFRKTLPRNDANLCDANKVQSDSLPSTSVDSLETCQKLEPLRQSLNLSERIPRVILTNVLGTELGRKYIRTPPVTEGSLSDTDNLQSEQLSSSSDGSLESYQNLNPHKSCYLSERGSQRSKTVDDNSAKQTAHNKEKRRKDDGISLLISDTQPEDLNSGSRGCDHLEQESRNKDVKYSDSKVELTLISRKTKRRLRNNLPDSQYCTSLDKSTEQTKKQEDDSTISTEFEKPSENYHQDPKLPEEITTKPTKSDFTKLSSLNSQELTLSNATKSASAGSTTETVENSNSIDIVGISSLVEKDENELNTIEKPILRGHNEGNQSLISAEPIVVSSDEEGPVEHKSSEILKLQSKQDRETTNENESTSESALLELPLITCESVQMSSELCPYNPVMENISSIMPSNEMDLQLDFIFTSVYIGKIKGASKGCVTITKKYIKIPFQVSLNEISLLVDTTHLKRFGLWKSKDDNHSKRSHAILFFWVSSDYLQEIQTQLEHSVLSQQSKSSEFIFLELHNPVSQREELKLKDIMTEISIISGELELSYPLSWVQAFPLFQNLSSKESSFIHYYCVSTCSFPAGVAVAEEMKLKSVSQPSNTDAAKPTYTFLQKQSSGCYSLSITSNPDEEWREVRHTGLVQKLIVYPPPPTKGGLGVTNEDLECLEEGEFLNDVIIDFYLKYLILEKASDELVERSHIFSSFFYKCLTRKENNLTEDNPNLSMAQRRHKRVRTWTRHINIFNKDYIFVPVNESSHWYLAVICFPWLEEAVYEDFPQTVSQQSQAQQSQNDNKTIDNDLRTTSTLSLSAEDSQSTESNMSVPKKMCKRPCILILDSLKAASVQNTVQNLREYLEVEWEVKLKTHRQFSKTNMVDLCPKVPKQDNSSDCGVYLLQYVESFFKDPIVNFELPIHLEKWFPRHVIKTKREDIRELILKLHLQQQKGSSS

[9] = NIH-3T3 fibroblast cytotoxicity, dose response, cytotoxicity control, cell-based, fluorescence, Alamar Blue, secondary assay (AID 2327); type: functional;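 further: NIH-3T3 mouse fibroblasts cultured with fluconazole at 8 µg/mL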
[10] = target: T2, Serine/threonine-protein phosphatase (Candida dubliniensis (strain CD36 / CBS 7987 / NCPF 3949 / NRRLY-17841) (Yeast), UniProt B9W6M3); test: blockers of CaCl2-induced CDRE-lacZ signaling – S. cerevisiae, luminescence, secondary, dose response (AID 2388); type: functional, cell-based;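 further: yeast reporter cells carrying a calcineurin-responsive lacZ construct stimulated with calcium chloride; luminescent beta-galactosidase reporter signal in whole cells rather than isolated phosphatase activity; potency for inhibition where a drop in reporter signal means calcineurin blockade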
T2 sequence (B9W6M3 whole entry): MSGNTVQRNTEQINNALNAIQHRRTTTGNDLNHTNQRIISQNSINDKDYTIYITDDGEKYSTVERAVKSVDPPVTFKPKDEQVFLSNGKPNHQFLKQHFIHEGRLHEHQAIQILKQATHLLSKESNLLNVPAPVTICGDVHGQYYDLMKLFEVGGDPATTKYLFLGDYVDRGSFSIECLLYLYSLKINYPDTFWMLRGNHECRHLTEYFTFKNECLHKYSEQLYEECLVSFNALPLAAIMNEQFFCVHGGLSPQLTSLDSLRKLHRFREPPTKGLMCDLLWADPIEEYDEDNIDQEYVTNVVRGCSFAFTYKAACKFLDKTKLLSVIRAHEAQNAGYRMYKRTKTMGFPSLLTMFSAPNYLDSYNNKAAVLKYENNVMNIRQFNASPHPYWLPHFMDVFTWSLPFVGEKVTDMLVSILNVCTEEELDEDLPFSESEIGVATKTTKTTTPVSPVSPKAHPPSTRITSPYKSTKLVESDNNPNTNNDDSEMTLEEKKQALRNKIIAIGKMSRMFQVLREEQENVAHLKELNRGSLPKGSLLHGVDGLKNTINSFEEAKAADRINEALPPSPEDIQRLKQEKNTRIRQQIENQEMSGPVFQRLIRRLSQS

[11] = target: Intestinal-type alkaline phosphatase (Mus musculus, UniProt P24822); test: PubChem AID 488785; type: functional
[12] = target: Sphingosine 1-phosphate receptor 4 (Homo sapiens, UniProt O95977); test: Fluorescence dose response cell-based high throughput screening assay for antagonists of the Sphingosine 1-Phosphate Receptor 4 (S1P4). [Related pubchem assays: 1524 (Confirmation in triplicates.), 1510 (Primary screen.)]; type: functional
[13] = test system: BJ; test: BJ-TERT fibroblast viability loss – cell-based, RAS-independent, luminescence, dose response (AID 1933); type: functional; conditions: Homo sapiens

Mitogen-activated protein kinase kinase kinase kinase 2, sequence (Q12851 whole entry): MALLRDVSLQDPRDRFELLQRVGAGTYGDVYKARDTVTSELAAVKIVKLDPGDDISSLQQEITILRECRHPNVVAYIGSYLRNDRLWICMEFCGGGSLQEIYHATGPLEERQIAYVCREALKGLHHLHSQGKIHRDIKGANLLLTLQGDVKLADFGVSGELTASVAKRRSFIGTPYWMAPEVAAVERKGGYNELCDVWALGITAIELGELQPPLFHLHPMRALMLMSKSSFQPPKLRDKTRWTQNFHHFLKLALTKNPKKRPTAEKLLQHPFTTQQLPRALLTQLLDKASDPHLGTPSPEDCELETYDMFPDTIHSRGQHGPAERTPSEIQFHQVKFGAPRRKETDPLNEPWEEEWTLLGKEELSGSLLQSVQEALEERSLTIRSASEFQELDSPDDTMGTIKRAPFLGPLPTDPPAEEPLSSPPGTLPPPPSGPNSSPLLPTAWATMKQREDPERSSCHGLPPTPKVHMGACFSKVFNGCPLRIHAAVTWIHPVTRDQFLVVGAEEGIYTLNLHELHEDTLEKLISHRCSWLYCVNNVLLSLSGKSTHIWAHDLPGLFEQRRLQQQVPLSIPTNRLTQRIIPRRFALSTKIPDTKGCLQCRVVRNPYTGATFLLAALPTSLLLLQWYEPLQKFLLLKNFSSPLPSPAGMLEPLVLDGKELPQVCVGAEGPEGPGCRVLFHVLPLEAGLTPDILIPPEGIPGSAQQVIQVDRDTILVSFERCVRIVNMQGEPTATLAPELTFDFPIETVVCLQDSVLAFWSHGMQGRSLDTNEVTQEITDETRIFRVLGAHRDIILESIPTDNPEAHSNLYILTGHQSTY
Cyclin-dependent kinase 9, sequence (P50750 whole entry): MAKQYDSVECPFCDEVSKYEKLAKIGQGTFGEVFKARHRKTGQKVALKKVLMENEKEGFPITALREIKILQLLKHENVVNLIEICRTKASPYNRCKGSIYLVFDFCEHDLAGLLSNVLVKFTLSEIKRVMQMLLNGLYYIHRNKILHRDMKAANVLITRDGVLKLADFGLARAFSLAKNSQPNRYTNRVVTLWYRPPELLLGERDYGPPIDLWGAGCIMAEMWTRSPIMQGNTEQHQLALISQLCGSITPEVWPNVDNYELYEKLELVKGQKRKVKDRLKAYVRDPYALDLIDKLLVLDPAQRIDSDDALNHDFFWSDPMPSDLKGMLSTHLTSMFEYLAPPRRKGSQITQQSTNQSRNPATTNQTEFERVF
Intestinal-type alkaline phosphatase, sequence (P24822 whole entry): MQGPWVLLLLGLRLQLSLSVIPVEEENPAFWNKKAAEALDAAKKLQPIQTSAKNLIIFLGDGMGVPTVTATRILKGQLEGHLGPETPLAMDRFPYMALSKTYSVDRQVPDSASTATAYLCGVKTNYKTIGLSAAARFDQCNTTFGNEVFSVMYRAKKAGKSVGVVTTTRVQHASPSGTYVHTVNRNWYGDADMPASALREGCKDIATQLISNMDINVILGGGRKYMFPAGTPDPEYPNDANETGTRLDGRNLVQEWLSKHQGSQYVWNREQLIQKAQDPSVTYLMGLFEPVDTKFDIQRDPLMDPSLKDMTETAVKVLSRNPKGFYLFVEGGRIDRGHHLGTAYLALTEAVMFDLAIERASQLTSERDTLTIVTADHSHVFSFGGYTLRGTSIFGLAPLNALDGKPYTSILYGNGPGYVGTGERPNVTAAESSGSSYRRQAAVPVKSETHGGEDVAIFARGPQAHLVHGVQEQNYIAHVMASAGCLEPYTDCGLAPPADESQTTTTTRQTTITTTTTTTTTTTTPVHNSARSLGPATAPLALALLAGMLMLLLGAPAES
Sphingosine 1-phosphate receptor 4, sequence (O95977 whole entry): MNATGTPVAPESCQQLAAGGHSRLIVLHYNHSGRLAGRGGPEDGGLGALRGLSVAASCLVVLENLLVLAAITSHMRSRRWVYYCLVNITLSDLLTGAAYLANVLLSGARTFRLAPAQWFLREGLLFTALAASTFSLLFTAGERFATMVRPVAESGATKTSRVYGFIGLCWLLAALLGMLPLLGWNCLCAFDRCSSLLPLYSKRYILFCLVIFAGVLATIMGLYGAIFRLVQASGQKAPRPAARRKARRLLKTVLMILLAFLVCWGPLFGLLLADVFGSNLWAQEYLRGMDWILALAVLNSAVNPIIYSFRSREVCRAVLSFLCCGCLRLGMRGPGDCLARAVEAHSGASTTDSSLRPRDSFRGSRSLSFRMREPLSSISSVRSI
Maternal embryonic leucine zipper kinase, sequence (Q14680 whole entry): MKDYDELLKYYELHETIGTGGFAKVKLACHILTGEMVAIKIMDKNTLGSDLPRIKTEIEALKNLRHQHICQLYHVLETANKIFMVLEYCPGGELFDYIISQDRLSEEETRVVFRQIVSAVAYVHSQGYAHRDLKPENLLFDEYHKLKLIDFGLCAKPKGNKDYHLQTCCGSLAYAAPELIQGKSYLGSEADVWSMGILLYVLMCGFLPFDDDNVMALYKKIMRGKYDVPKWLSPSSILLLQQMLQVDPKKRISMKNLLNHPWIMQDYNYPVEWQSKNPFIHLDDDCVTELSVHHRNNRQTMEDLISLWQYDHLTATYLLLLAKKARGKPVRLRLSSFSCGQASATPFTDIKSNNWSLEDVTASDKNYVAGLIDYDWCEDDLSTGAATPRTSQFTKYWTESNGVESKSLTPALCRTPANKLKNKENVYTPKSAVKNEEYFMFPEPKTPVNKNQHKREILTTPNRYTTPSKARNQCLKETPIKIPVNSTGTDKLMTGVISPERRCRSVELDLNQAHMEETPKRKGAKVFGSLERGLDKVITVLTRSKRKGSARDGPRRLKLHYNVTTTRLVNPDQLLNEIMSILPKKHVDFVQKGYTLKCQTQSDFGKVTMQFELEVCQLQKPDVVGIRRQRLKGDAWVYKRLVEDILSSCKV
Serine/threonine-protein kinase pim-2, sequence (Q9P1W9 whole entry): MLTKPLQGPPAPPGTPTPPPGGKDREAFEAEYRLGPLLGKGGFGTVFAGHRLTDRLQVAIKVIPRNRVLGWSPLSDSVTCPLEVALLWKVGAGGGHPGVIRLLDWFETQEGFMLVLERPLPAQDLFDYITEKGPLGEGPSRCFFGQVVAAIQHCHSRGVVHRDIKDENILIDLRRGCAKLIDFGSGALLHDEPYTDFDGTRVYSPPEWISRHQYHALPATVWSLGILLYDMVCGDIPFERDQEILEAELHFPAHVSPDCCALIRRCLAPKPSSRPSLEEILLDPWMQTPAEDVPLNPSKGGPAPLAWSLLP
Multidrug resistance protein CDR1, sequence (P43071 whole entry, looked up): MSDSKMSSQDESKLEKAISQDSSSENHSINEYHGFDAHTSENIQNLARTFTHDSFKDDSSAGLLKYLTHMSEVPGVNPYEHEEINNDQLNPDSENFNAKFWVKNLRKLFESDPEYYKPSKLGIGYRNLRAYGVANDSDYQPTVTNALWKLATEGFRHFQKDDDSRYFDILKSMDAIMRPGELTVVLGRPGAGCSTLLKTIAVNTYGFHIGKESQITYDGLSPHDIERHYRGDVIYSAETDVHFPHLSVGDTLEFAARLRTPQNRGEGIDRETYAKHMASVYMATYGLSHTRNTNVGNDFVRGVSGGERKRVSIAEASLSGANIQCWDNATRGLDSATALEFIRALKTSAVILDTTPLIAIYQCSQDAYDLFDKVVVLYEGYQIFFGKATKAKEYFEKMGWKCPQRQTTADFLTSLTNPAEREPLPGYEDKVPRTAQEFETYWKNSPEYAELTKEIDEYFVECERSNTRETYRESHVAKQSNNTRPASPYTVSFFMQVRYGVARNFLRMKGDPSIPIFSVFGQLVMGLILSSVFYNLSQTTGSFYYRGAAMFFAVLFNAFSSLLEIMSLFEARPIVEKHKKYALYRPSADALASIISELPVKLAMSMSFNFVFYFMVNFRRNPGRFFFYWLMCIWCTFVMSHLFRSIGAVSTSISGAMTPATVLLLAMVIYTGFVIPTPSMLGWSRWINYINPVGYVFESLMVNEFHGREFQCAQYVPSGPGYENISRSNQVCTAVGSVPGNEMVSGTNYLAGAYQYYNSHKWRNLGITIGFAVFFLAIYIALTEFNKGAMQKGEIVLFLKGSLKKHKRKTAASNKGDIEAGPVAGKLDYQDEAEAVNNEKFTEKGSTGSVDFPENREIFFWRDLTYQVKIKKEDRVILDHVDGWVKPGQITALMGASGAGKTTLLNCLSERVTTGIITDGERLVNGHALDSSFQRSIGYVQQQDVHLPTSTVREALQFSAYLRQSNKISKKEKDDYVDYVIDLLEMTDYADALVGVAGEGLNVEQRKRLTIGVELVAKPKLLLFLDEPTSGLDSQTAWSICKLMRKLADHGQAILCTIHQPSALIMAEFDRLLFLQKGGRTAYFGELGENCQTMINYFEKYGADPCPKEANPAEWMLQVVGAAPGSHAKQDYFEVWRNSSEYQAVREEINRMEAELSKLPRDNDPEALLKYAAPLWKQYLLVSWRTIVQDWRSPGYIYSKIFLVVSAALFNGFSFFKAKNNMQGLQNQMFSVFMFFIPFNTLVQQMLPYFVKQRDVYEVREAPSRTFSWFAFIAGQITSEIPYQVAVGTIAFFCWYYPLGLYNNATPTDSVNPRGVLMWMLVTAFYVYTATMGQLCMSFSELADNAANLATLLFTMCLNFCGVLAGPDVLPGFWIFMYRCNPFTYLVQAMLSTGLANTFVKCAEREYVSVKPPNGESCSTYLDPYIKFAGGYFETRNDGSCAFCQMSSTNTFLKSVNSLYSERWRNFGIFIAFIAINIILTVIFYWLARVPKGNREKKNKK
Dual specificity mitogen-activated protein kinase kinase 2, sequence (P36507 whole entry): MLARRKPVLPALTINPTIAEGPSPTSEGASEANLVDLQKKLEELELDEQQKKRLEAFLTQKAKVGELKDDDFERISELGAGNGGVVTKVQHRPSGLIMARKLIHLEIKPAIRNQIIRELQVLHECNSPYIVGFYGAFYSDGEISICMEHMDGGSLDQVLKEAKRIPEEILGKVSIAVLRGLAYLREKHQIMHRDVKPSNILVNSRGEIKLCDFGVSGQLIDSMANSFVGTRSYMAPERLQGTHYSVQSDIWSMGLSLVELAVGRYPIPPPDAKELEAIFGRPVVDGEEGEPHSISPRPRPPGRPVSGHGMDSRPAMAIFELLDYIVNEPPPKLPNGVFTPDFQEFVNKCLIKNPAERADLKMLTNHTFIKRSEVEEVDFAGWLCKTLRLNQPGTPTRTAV

Ki [1]: 15.8 µM (active) | Ki [2]: 7.94 µM (active) | Ki [3]: > 1.58 µM (inactive) | Ki [4]: > 1.58 µM (inactive) | Ki [5]: > 6.31 µM (inactive) | Ki [6]: 15.8 µM (active)
SMILES: Nc1noc2cccc(-c3cccc(O)c3)c12

SMILES: Cc1ccc2[nH]c(/C(C#N)=C/c3ccc(O)c(O)c3)nc2c1
EC50 [7]: 13.4 µM (active) | IC50 [8]: 9.9 µM (active)

SMILES: CN(C)S(=O)(=O)Oc1cccc(C(=O)Nc2ccc(Cl)c(Cl)c2)c1
EC50 [9]: > 150 µM (inactive) | EC50 [10]: > 180 µM (inactive) | IC50 [8]: 5.38 µM (active)

IC50 [11]: 7.75 µM (active)
SMILES: O=C(NN1C(=O)CSC1=S)C(=O)NN1C(=O)CSC1=S

SMILES: COC(=O)C1CN(C#N)N(c2ccc(Cl)cc2)C12c1ccccc1-c1ccccc12 (centres undefined)
IC50 [12]: 0.313 µM (active) | EC50 [13]: 1.93 µM (active)
